From patent US20100092575A1, “Method of making treatment materials and using same to treat algae and/or pests” (priority 2004, published 2010)

Tests used:
[1] = aqueous; cited from earlier work
[2] = test system: flora and fauna in the water feature; settings: previous treatment method of the water hazard
Excerpt: A golf course water hazard in Northern California contained large mats (i.e., growths) of string algae during the summer months. The algae were predominantly confined to the edges of the water body. […] Furthermore, a special permit is needed to apply toxic copper sulfate.

SMILES | pH values at which decomposition significantly increases [1] | effect on flora and fauna in the water feature [2]
OO [hydrogen peroxide] | greater than 6 | 
O=S(=O)([O-])[O-].[Cu+2] [copper sulfate] |  | killed most of the flora and fauna
